# Assay results published in ChEMBL document CHEMBL1148670, “Keto-1,3,4-oxadiazoles as cathepsin K inhibitors” (Bioorg Med Chem Lett, 2006).
# Columns and labels:
# Settings in all cases: read-out: Ki app
# Cathepsin S = Cathepsin S (Homo sapiens, UniProt P25774); assay: Inhibition of human cathepsin S
# Procathepsin L = Procathepsin L (Homo sapiens, UniProt P07711); assay: Inhibition of human cathepsin L
# Cathepsin K = target: T1, Cathepsin K (Homo sapiens, UniProt P43235); assay: Inhibition of human cathepsin K
# T1 sequence (P43235 whole entry): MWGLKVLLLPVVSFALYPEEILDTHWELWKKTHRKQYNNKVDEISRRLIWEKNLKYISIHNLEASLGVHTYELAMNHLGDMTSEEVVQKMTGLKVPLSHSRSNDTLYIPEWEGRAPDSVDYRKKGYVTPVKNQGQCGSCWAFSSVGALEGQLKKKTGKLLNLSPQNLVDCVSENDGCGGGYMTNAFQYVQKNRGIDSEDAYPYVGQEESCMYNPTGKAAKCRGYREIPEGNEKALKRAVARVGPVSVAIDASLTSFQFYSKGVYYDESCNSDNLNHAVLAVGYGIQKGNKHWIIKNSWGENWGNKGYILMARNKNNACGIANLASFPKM
# Cathepsin B = Cathepsin B (Homo sapiens, UniProt P07858); assay: Inhibition of human cathepsin B
# Cathepsin S, sequence (P25774 whole entry): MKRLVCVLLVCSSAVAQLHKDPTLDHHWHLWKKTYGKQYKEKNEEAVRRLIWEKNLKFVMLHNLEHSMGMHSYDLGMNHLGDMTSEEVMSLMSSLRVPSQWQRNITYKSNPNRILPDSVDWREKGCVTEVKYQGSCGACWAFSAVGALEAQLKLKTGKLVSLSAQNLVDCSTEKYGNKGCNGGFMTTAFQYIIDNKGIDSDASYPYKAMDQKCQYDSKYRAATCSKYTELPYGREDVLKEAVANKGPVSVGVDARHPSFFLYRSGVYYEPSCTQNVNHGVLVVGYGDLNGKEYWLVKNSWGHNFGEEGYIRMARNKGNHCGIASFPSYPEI
# Procathepsin L, sequence (P07711 whole entry): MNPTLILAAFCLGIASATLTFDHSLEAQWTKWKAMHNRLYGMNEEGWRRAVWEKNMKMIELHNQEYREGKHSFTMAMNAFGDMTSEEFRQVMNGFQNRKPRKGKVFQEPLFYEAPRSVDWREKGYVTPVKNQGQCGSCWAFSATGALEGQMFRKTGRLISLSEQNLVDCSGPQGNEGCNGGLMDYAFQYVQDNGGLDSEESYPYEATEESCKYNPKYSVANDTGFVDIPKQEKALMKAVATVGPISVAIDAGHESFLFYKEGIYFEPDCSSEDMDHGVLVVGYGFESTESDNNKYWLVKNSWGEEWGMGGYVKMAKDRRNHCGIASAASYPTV
Ki (Cathepsin S) [µM],Ki (Procathepsin L) [µM],Ki (Cathepsin K) [µM],Ki (Cathepsin B) [µM],SMILES
2.6,100,9.6,25,CCC[C@H](NC(=O)CCc1ccccc1)C(=O)c1nnc(-c2ccco2)o1
19,> 150,17,> 150,CCC[C@H](NC(=O)OC(C)(C)C)C(=O)c1nnc(-c2ccccc2OC)o1
< 0.00025,0.001,< 0.00025,0.002,CCC[C@H](NC(=O)[C@H](CC(C)C)C(=O)OCc1ccccc1)C(=O)c1nnc(-c2ccco2)o1
0.47,0.3,0.0079,0.098,CCC[C@H](NC(=O)C1(NC(=O)c2ccc(OC(F)(F)F)cc2)CCCCC1)C(=O)c1nnc(CC)o1
10,7.5,0.037,2.1,CCC[C@H](NC(=O)C1(NC(=O)c2ccc(OC(F)(F)F)cc2)CCCCC1)C(=O)c1nnc(-c2cccc(OC)c2)o1
12,63,0.81,120,CCC[C@H](NC(=O)OC(C)(C)C)C(=O)c1nnc(-c2cccs2)o1
0.24,2.1,0.12,48,CCC[C@H](NC(=O)[C@H](CC(C)C)NCC(F)(F)F)C(=O)c1nnc(-c2ccco2)o1
0.76,2.9,0.0052,0.27,CCC[C@H](NC(=O)C1(NC(=O)c2ccc(OC(F)(F)F)cc2)CCCCC1)C(=O)c1nnc(-c2cccs2)o1
0.7,0.96,0.00095,0.73,CCC[C@H](NC(=O)C1(NC(=O)c2ccc(N(C)C)cc2)CCCCC1)C(=O)c1nnc(-c2ccco2)o1
13,11,0.55,23,CCC[C@H](NC(=O)C1(NC(=O)c2ccc(OC(F)(F)F)cc2)CCCCC1)C(=O)c1nnc(-c2ccc(C(F)(F)F)cc2)o1
3.3,1.4,0.054,1.1,CCC[C@H](NC(=O)C1(NC(=O)c2ccc(OC(F)(F)F)cc2)CCCCC1)C(=O)c1nnc(-c2cccc(C(F)(F)F)c2)o1
20,37,0.022,57,CCC[C@H](NC(=O)C1(NC(=O)c2ccc(OC(F)(F)F)cc2)CCCCC1)C(=O)c1nnc(-c2ccc(OC)cc2)o1
45,19,0.029,73,CCC[C@H](NC(=O)C1(NC(=O)c2ccc(OC(F)(F)F)cc2)CCCCC1)C(=O)c1nnc(-c2ccccc2)o1
130,> 150,5.6,> 150,CCC[C@H](NC(=O)OC(C)(C)C)C(=O)c1nnc(C(C)C)o1
2,28,3,34,CCC[C@H](NC(=O)OCc1ccccc1)C(=O)c1nnc(-c2ccco2)o1
17,10,1.3,10,CCC[C@H](NC(=O)C1(NC(=O)c2ccc(OC(F)(F)F)cc2)CCCCC1)C(=O)c1nnc(C(C)(C)C)o1
0.35,1,0.0017,0.22,CCC[C@H](NC(=O)C1(NC(=O)c2ccc(OC(F)(F)F)cc2)CCCCC1)C(=O)c1nnc(-c2ccco2)o1
0.96,18,0.043,7.3,CCC[C@H](NC(=O)C1(NC(=O)OC(C)(C)C)CCCCC1)C(=O)c1nnc(-c2ccco2)o1
0.38,14,0.5,16,CCC[C@H](NC(=O)OCC(C)C)C(=O)c1nnc(-c2ccco2)o1
0.8,4.6,0.035,0.43,CCC[C@H](NC(=O)C1(NC(=O)c2ccc(OC(F)(F)F)cc2)CCCCC1)C(=O)c1nnc(C(C)C)o1
28,130,33,> 150,CCC[C@H](NC(=O)OC(C)(C)C)C(=O)c1nnc(-c2ccc(N(C)C)cc2)o1
0.32,0.16,0.0033,0.093,CCC[C@H](NC(=O)C1(NC(=O)c2ccc(OC(F)(F)F)cc2)CCCCC1)C(=O)c1nnc(OC)o1
9.2,150,52,110,CCC[C@H](NC(=O)Cc1ccccc1)C(=O)c1nnc(-c2ccco2)o1
0.14,2.9,0.019,0.95,CCC[C@H](NC(=O)C1(NC(=O)c2ccc(F)cc2)CCCCC1)C(=O)c1nnc(-c2ccco2)o1
